Laboratory results as given in US8691801B2, “Use of manzamine compounds in anti-cancer therapeutic regimens” (Florida Atlantic University Board of Trustees, priority 2006, dated 2014).
Read-outs that look alike come from different tables or passages of the source.

Experiments:
AsPC-1 cells [1] = assay: Cell viability assay (MTT); format: cell-based; conditions: pancreatic cancer cells
Protocol: Cell viability assays. A 3-[4,5-Dimethyl-2-thiazolyl]-2,5-diphenyl-2H-tetrazolium bromide (MTT) based assay was used to determine cell viability. […] Cells were allowed to adhere for 24 hours. […] Treatment consisted of 5 μM or 50 μM of Manzamine A, media alone, media with methanol, or 20 μg/ml U0126. […] After this incubation, 75 μl 5 mg/ml MTT were added to each well. […] The plates were shaken for 15 minutes. […] The resulting absorbencies were plotted using Microsoft Excel.

AsPC-1 cells [2] = assay: Morphological changes (cell dissociation) induced in AsPC-1 cells; format: cell-based
Protocol: Cell Culture Conditions for the AsPC-1 pancreatic adenocarcinoma cell line. AsPC-1, a pancreatic adenocarcinoma cell line, was obtained from ATCC, grown, aliquotted and frozen stocks were maintained in liquid nitrogen. Aliquots of the stock cells were thawed and grown in RPMI-1640 supplemented with 10% Fetal Bovine Serum, 0.11 mg/ml Sodium Pyruvate, 4.5 g/L D-glucose, 18 mM HEPES Buffer, 100 U/ml penicillin G sodium, 100 μg/ml streptomycin sulfate, 0.25 μg/ml amphotericin B, 2 mM L-glutamine and 50 μg/ml gentamicin (Complete RPMI). Cells were maintained in a humidified incubator at 37° C. and 5% CO2.
An observation was made that inhibiting the constitutive activation of MEK abrogates cell dissociation (Tan, X. et al., 2004 “Involvement of the mitogen-activated protein kinase kinase 2 in the induction of cell dissociation in pancreatic cancer” Int J Oncol 24(1):65-73), a precursor step in metastasis.

AsPC-1 cells [3] = format: cell-based
Source text: In Vitro Cell Invasion Assay. The invasiveness of AsPC-1 cells alone, treated with our test compounds or treated with U0126 as a positive control will be evaluated in 24-well transwell chambers, as described by Fu et al. “Effects of raf kinase inhibitor protein expression on suppression of prostate cancer metastasis”. […] Briefly, the upper and lower culture compartments of each well are separated by polycarbonate membranes (8-μm pore size). To determine baseline migration, 2.5×10^4 cells in 0.5 mL of complete medium containing 5% FBS are placed into the upper compartment of uncoated wells (BD Discovery Labware, San Diego, Calif.), and 0.75 mL of complete medium containing 10% FBS are placed into the lower compartment. In parallel, to assess the ability of the same cells to penetrate a collagen matrix, the experiment is repeated using upper compartments coated with 100 μg/cm^2 of collagen matrix (BD Discovery Labware, San Diego, Calif.). The transwell chambers are incubated for 24 hours at 37 ° C. in 95% air and 5% CO2. Cell penetration through the membrane is detected by staining the cells on the porous membrane with a Diff-Quik stain kit' observing under the microscopic and capturing images with a digital camera.

AsPC-1 cells [4] = assay: TRAIL induced apoptosis (MTT readout); conditions: 10 μM manzamine A, 48 hours, without TRAIL
Protocol: (§1) TRAIL induced apoptosis. 12,000 AsPC-1 cells were plated on a 96-well tissue culture plate at a volume of 200 μl/well, allowing for twelve replicate wells per treatment. Cells were allowed to adhere for 24 hours. At the end of this incubation, 100 μl of medium were removed from each test well and 100 μl of medium containing treatment were added. Treatment consisted of media alone, media with methanol, 10 μM Manzamine A or 20 μg/m1 U0126. The cells were then incubated for 48 hours at 37° C. and 5% CO2. After this incubation, half of the wells of each treatment were incubated with 100 ng/ml Super Killer TRAIL (Alexis, San Diego, Calif.) for 18 hours at 37° C. and 5% CO2. At the end of this incubation, 75 μl of a 5 mg/ml MTT solution were added to each well. The cells were then incubated for 3 hours at 37° C. The plates were centrifuged for 10 minutes at 800 rpm. The supernatant was removed and 200 μl acidified isopropyl alcohol (1:500 solution of hydrochloric acid to isopropanol) were added to each well. The plates were shaken for 15 minutes. The absorbencies of these solutions were measured at 570 nm with a plate reader (NOVOstar, BMG Labtech Inc., Durham, N.C.). The resulting absorbencies were plotted using Microsoft Excel. […]

AsPC-1 cells [5] = system: AsPC-1 cells
Protocol: as §1

O[C@]12C=C(c3nccc4c3[nH]c3ccccc34)[C@@H]3CCN(CCCC/C=C\CC1)C[C@@]31CC3/C=C\CCCCN3[C@H]12 (some centres unmarked) [Manzamine A, manzamine A]
cytotoxicity at small doses (AsPC-1 cells [1]): little cytotoxicity | abrogation of cell dissociation (AsPC-1 cells [2]; AsPC-1 cells treated 48 hours with 1.25, 2.5, 5, 10 μM Manzamine A, microscopy): caused abrogation of cell dissociation similar to that caused by pMEK inhibitors | abrogation of cell dissociation, dose dependence (AsPC-1 cells [2]; AsPC-1 cells, 48 hours, 5 and 10 μM dose compared with 1.25 and 2.5 μM): stronger at the 5 and 10 μM dose | dose needed for similar effects relative to U0126 (AsPC-1 cells [2]; effects on cell dissociation, migration and TRAIL resistance, manzamine A vs U0126): a fifth of the dose needed for U0126 | prevention of cell migration (AsPC-1 cells [3]; AsPC-1 cells treated 48 hours, 5 and 10 μM Manzamine A, transwell, collagen matrix): prevented cell migration similar to that caused by the pMEK inhibitor U0126 | cytotoxicity of treatment alone (AsPC-1 cells [4]): induced some cytotoxicity

N#CC(=C(/N)Sc1ccccc1N)/C(C#N)=C(\N)Sc1ccccc1N [U0126, reference compound]
prevention of cell migration (AsPC-1 cells [3]): prevented cell migration | cytotoxicity of treatment alone (AsPC-1 cells [5]): induced some cytotoxicity
